According to US5593970A, “Heterocyclic anthracycline analogs” (priority 1994, dated 1997):
Where two headings read alike, the source gives them in different places.

Assays:
SKOV3 = assay: Microculture tetrazolium assay; assay type: cell-based; conditions: read-out: IC50
MCF7/ADR = assay: Soft agar colony formation disk diffusion assay; assay type: cell-based, human
Excerpt: (§1) A more elaborate version of this fundamental assay, the soft agar colony formation disk diffusion assay was used. This assay defines the relative activity of one particular drug versus a tumoral cell line type. The effect of the test drug against tumoral cells could be measured by its inhibitory capacity against colony formation after the delivery of the compound, in different concentrations on an filter disk(4). A modified technique of this assay was used in order to investigate the antiproliferative activity of candidate compounds. Tumoral cells from solid tumors and ascitic lines were plated separately in a two layer agar matrix. Cell lines to be tested were suspended in an upper layer of 0.4% Noble agar (Difco#00142-01) in RPMI-1066 (Gibco#3201875) at a yield varying between 10^4 to 2×10^5 cells per 60 mm Petri dish. Plating efficiency was determined for each line in order to achieve an optimal number of colonies per dish. Plates were examined before drug administration to confirm a uniform dispersion of single cells. The bottom layer consisted of 0.8% Noble agar, 0.8% Tryptic Soy Broth (difco#0037001)in CMRL-1066/Fischer's. The bottom layers were used within 2 and 9 days of preparation. Plated dishes (bottom layer of agar, upper layer of cells and administered drug were incubated in humidified atmosphere at 37° C., 5% CO2 for 10-20 days depending upon the time necessary to observe adequate colonies (defined as a cell aggregate of more than 50 cells) both control and drug inhibited. Drugs were administered on a paper filter disk (Whatman No. 1) of 6.5 mm diameter placed on the upper layer at 1/3 distance from the edge of the dish. The anti-clonogenic activity of the compounds was measured as the zone of inhibition from the disk edge to the most proximal colonies. This zone of inhibition was checked on an inverted microscope (40×) and was measured with a micrometer mounted in the eyepiece. The ocular micrometer was calibrated with a stage micrometer set for a particular combination of ocular and objective lenses. […] We made a modification of the initial technique by not plating a solid tumor and a leukemia simultaneously in the same Petri dish. Anti-clonogenic tests performed on leukemia cell line have helped in the discovery of the majority of current clinically used cytostatic drugs. Our tests on solid tumor lines (animal or human) may help define active compounds with solid tumor specificity. […] HUMAN TUMORS. […] LS180 (13) and BE1(14) were obtained from the Oncology Dept. of the Montreal General Hospital. […] Cell lines were routinely passaged twice a week by trypsinization and maintained in 25, or 75-sq. cm Falcon Plastic flasks at 37° C., 5% CO2 in humidified atmosphere. Both compounds were dissolved in DMSO (1 mg/100 ul) and brought to final volume (250 ul) with Millipore deionized sterile water. Further dilutions were made with […] volume of 25 ul of freshly prepared solution was placed on the filter disk and allowed to dry.

LS180 = assay: Soft agar colony formation disk diffusion assay; assay type: cell-based, human
Excerpt: as §1

MCF7 = assay: Soft agar colony formation disk diffusion assay; assay type: cell-based, human
Excerpt: as §1

T47D = assay: Microculture tetrazolium assay; assay type: cell-based; conditions: read-out: IC50

| IC50 (SKOV3; SKOV3) | IC50 (T47D) | Molecule | zone of inhibition (MCF7/ADR; 10 μg/DISK) | zone of inhibition (MCF7/ADR; 100 μg/DISK) | zone of inhibition (LS180; 10 μg/DISK) | zone of inhibition (LS180; 100 μg/DISK) | zone of inhibition (MCF7; 10 μg/DISK) | zone of inhibition (MCF7; 100 μg/DISK) | IC50 (SKOV3; Homo sapiens, SK-OV-3, SKOV3) | IC50 (T47D; Homo sapiens) | cross resistance with adriamycin, MCF7/ADR vs MCF7 (MCF7/ADR) |
| --- | --- | --- | --- | --- | --- | --- | --- | --- | --- | --- | --- |
| 41.6 µM | 16.3 µM | 3-carbomethoxy-6-hydroxy-1,2,3,4-tetrahydro-(2-sulfur)naphthacene-5,12-dione and 3-carbomethoxy-11-hydroxy-1,2,3,4-tetrahydro(2-sulfur)naphthacene-5,12-dione [BCH-693] | 24.4 ± 17.2 Zone Units | 67.1 ± 25.8 Zone Units | 0 Zone Units | 39.6 ± 4.3 Zone Units | 0 Zone Units | 67.1 ± 34.5 Zone Units |  |  |  |
|  |  | CCOC(=O)C1CC2=C(CO1)C(=O)c1c(c(O)c3ccccc3c1OC(C)=O)C2=O (stereo not shown) [BCH-654, Ethyl[11-acetoxy-6-hydroxy-5,12-dioxo-3,4,5,12-tetrahydroanthraceno(2,3-c)pyran-3-yl]formate] | 0 Zone Units | 155.6 ± 12.7 Zone Units | 24.4 ± 8.6 Zone Units | 158.5 ± 9.1 Zone Units | 0 Zone Units | 115.9 ± 8.6 Zone Units | 98.4 µM | > 100 µM |  |
| 8.22 µM | 11.3 µM | 3-(2-hydroxy)aceto-6-hydroxy-1,2,3,4-tetrahydro-(2-oxygen)naphthacene-5,12-dione and 3-(2-hydroxy)aceto-11-hydroxy-1,2,3,4-tetrahydro-(2-oxygen)naphthacene-5,12-dione [BCH-694] | 0 Zone Units | 161.5 ± 13.4 Zone Units | 48.8 ± 17.2 Zone Units | 153.2 ± 1.0 Zone Units | 61.0 ± 0.0 Zone Units | 149.4 ± 12.9 Zone Units |  |  |  |
|  |  | C=CC1CC2=C(C(=O)c3cc4ccccc4c(O)c3C2=O)C(OC)O1 (stereo not shown) [BCH-712, 6-hydroxy-1-methoxy-1,2,3,4-tetrahydro-3-vinyl-(2-oxygen) naphthacene-5,12-dione] | 24.0 ± 8.4 Zone Units | 79.0 ± 8.4 Zone Units | 9.0 ± 4.2 Zone Units | 158.0 ± 34.6 Zone Units | 0 Zone Units | 54.5 ± 9.1 Zone Units |  |  | more active in the adriamycin resistant cell line |
| 55.8 µM | 47.8 µM | CC(=O)Oc1c2c(c(O)c3ccccc13)C(=O)C1=C(CC(C(C)=O)OC1)C2=O (stereo not shown) [BCH-721] | 91.0 ± 86.2 Zone Units | 183.0 ± 86.2 Zone Units | 18.9 Zone Units | 122.0 ± 0.0 Zone Units | 55.0 ± 8.4 Zone Units | 167.0 ± 21.9 Zone Units |  |  |  |
|  |  | CCOC(=O)C1Cc2c(c(OC)c3c(c2OC)C(=O)c2ccccc2C3=O)CS1 (stereo not shown) [BCH-717] | 0 Zone Units | 0 Zone Units | 0 Zone Units | 61.0 ± 0.0 Zone Units | 0 Zone Units | 0 Zone Units | > 100 µM | > 100 µM |  |

| Molecule | IC50 (SKOV3; SKOV3) | IC50 (T47D) | zone of inhibition (MCF7/ADR; 10 μg/DISK) | zone of inhibition (MCF7/ADR; 100 μg/DISK) | zone of inhibition (LS180; 10 μg/DISK) | zone of inhibition (LS180; 100 μg/DISK) | zone of inhibition (MCF7; 10 μg/DISK) | zone of inhibition (MCF7; 100 μg/DISK) | IC50 (SKOV3; Homo sapiens, SK-OV-3, SKOV3) | IC50 (T47D; Homo sapiens) | cross resistance with adriamycin, MCF7/ADR vs MCF7 (MCF7/ADR) |
| --- | --- | --- | --- | --- | --- | --- | --- | --- | --- | --- | --- |
| 3-Carbomethoxy-1,11-dihydroxy-1,2,3,4-tetrahydro-(2-oxygen)naphthacene-5,12-dione 3-Carbomethoxy-1,6-dihydroxy-1,2,3,4-tetrahydro-(2-oxygen)naphthacene-5,12-dione [BCH-711] | 11.1 µM | 12.4 µM | 24.4 ± 8.5 Zone Units | 222.4 ± 159.2 Zone Units | 18.0 ± 16.9 Zone Units | 182.5 ± 43.1 Zone Units | 0 Zone Units | 244.0 ± 17.2 Zone Units |  |  |  |
